Test [1] relates to Lewis lung tumor cell. As to conditions: female mice implanted with Lewis lung tumor cell; Bernacki, page 93; cited from earlier work.
Test [2] has as its target hexosaminidase from human placenta. In words: Inhibition of hexosaminidase activity, 4-nitrophenyl-N-acetyl-β-glucosaminide substrate, 96-well microplate (human placenta enzyme). Format: biochemical. As to conditions: pH 4.5, 10 min preincubation at room temperature, substrate 30 min at 37° C., read at 405 nm. As to the method: (§1) In a preliminary screen, test compounds are studied over a range of concentrations from 0.1 to 100 μg/ml. together with a control sample. Specifically, the test compound is added to individual wells and made up to a total volume of 100 μl. To each well is added 25 μl of 1M sodium citrate buffer pH 4.5 and 25 μl of enzyme (1 mμ) in 10 mM sodium citrate at pH 4.5. The material is mixed and incubated at room temperature for 10 minutes. Then 50 μl of 10 mM substrate (4-nitrophenyl-N-acetyl-8-glucosaminide, Sigma # N-91376) is added and the mixture is incubated at 37° C. for 30 minutes. The reaction is then killed by adding 100 μl of 2% sodium carbonate and the yellow color due to release of 4-nitrophenol is read at 405 nm in an Elisa reader. The results obtained in this preliminary screen are then examined and, if inhibition has taken place, the procedure is repeated using several concentrations over a narrower range to provide for a more precise determination of the IC50.

For test [3], the target named is hexosaminidase from porcine placenta. In words: Inhibition of hexosaminidase activity, 4-nitrophenyl-N-acetyl-β-glucosaminide substrate, 96-well microplate (porcine placenta enzyme). Particulars: pH 4.5, 10 min preincubation at room temperature, substrate 30 min at 37° C., read at 405 nm. It is filed as biochemical. The method, then: as §1

For `CC(=O)NC1=CO[C@H](CO)[C@@H](O)[C@@H]1O` [2-acetamidoglucal], in test [1], the “increase of life span” value was 63%.
Consider `CC(=O)N[C@H]1CN2CC[C@H](O)[C@@H]2[C@@H](O)[C@@H]1O` [[1S-(1α,6β,7α,8β,8aβ)]-6-acetamidooctahydro-1,7,8-indolizinetriol], for which the “IC50 value for the inhibition of hexosaminidase from human placenta” value in test [2] is 0.1 µg/mL. Moreover, the “IC50 value for the inhibition of hexosaminidase from porcine placenta” value in test [3] is 0.1 µg/mL.

The values above are taken from US5079254A, “Derivatives of 6-aminooctahydroindolizinetriol” (Merrell Dow Pharmaceuticals Inc., priority 1990, dated 1992).
